In patent publication US20120004222A1, “CB2 RECEPTOR LIGANDS FOR THE TREATMENT OF PAIN” (priority 2007, published 2012) one finds IC50 data, which are given here for eleven molecules.

The target in the test is T1, human CB2 (Homo sapiens, UniProt P34972).
T1 construct: expressed in transfected cells; host or cells: CHO (Chinese Hamster Ovary) cells
Kind of test: Cyclic AMP assay (HTRF) in CHO cells expressing human CB2. Format: cell-based. How it is done:
Chinese Hamster Ovary cells (CHO) expressing human CB1 or human CB2 (3.3×10^5 cells/ml) were preincubated for 15 min at room temperature with tested agonist and 3-isobutyl-1-methylxanthine (IBMX; 200 μM) in phosphate buffered saline containing 1 mg/ml BSA (assay buffer) followed by 30 min incubation with forskolin in a total volume of 10 μl. The optimal forskolin concentration for each cell line was established in a separate experiment and adjusted to stimulate 70% of maximal cAMP response. cAMP content was measured using an HTRF assay (CisBio) according to the manufacturer's two step protocol.

Where [1] appears, read: CHO cells expressing human CB2, forskolin-stimulated cAMP, IBMX 200 μM, read-out: CB2 IC50.

Read-outs that look alike come from different tables or passages of the source.

T1 sequence (P34972 whole entry): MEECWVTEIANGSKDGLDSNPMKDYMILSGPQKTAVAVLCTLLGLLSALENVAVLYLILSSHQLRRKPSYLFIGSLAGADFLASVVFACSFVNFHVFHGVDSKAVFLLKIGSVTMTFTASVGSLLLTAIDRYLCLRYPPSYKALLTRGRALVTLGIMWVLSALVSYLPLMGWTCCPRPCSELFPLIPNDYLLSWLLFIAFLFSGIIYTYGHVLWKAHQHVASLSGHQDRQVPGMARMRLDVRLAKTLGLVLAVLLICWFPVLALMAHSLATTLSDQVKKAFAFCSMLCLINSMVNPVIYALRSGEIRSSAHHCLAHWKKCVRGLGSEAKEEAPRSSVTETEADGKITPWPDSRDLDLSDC

Take `c1ccc2[nH]c(-c3nc(CN4CCOCC4)c4ccccn34)nc2c1` [Example I-1, 2-[1-(morpholin-4-ylmethyl)imidazo[1,5-a]pyridin-3-yl]-1H-benzimidazole]: under setting [1], the IC50 amounted to 1260 nM.
In the case of `FC1(F)CCN(Cc2nc(-c3nc(-c4ccccc4)c[nH]3)n3ccccc23)CC1` [Example II-1, 1-[(4,4-difluoropiperidin-1-yl)methyl]-3-(4-phenyl-1H-imidazol-2-yl)imidazo[1,5-a]pyridine], the IC50 came to 178 nM.
Take `Fc1ccc(-c2cc(-c3nc(CN4CCOCC4)c4ccccn34)[nH]n2)cc1` [Example III-1, 3-[3-(4-fluorophenyl)-1H-pyrazol-5-yl]-1-(morpholin-4-ylmethyl)imidazo[1,5-a]pyridine]: under setting [1], the IC50 is 617 nM.
For the molecule `FC1(F)CCN(Cc2nc(-c3cccc(C(F)(F)F)c3)n3ccccc23)CC1` [Example IV-1, 1-[(4,4-difluoropiperidin-1-yl)methyl]-3-[3-(trifluoromethyl)phenyl]imidazo[1,5-α]pyridine], the IC50 worked out at 17 nM.
For the molecule `FC1(F)CCN(Cc2nc(-c3nc(-c4ccc(Cl)cc4)c[nH]3)n3ccccc23)CC1` [II-2, 3-[4-(4-CHLOROPHENYL)-1H-IMIDAZOL-2- YL]-1-[(4,4-DIFLUOROPIPERIDIN-1- YL)METHYL]IMIDAZO[1,5-A]PYRIDINE], under setting [1], the IC50 stood at 199 nM.
Same read-out and setting: as for `FC1(F)CCN(Cc2nc(-c3nc(-c4ccc(Cl)cc4Cl)c[nH]3)n3ccccc23)CC1` [II-3, 3-[4-(2,4-DICHLOROPHENYL)-1H- IMIDAZOL-2-YL]-1-[(4,4- DIFLUOROPIPERIDIN-1- YL)METHYL]IMIDAZO[1,5-A]PYRIDINE], the figure is 146 nM; as for `Fc1ccc(-c2c[nH]c(-c3nc(CN4CCC(F)(F)CC4)c4ccccn34)n2)cc1F` [II-4, 3-[4-(3,4-DIFLUOROPHENYL)-1H- IMIDAZOL-2-YL]-1-[(4,4- DIFLUOROPIPERIDIN-1-YL)METHYL] IMIDAZO[1,5-A]PYRIDINE], 171 nM.
The same measure, in the same setting: next, `FC1(F)CCN(Cc2nc(-c3nc(-c4cccc(C(F)(F)F)c4)c[nH]3)n3ccccc23)CC1` [II-5, 1-[(4,4-DIFLUOROPIPERIDIN-1- YL)METHYL]-3-{4-[3- (TRIFLUOROMETHYL)PHENYL]-1H- IMIDAZOL-2-YL}IMIDAZO [1,5-A]PYRIDINE]: 165 nM; `FC1(F)CCN(Cc2nc(-c3ccc(-c4ccn[nH]4)cc3)n3ccccc23)CC1` [IV-4, 1-[(4,4-DIFLUOROPIPERIDIN-1- YL)METHYL]-3-[4-(1H-PYRAZOL-5- YL)PHENYL]IMIDAZO[1,5-A]PYRIDINE]: 116 nM.
`CC(C)(O)CCc1ccc(-c2nc(CN3CCC(F)(F)CC3)c3ccccn23)cc1` [IV-6, 4-(4-{1-[(4,4-DIFLUOROPIPERIDIN-1- YL)METHYL]IMIDAZO[1,5-A]PYRIDIN-3- YL}PHENYL)-2-METHYLBUTAN-2-OL]: the IC50 was found to be 1350 nM.
In the case of `FC1(F)CCN(Cc2nc(-c3cccc(-n4cccn4)c3)n3ccccc23)CC1` [IV-7, 1-[(4,4-DIFLUOROPIPERIDIN-1- YL)METHYL]-3-[3-(1H-PYRAZOL-1- YL)PHENYL]IMIDAZO[1,5-A]PYRIDINE], under setting [1], the 50% inhibitory concentration (IC50) came to 113 nM.
